Results published in patent publication US9400283B2, “In vitro method using human skin for evaluating the influence of ABC transporters” (GALDERMA RESEARCH & DEVELOPMENT, priority 2011, dated 2016).
Values belong to the compound of their own block, whether it stands above or below them.

What was measured:
[1] = system: ex vivo human skin samples; experiment: In vitro skin absorption of vinblastine (receptor fluid, liquid scintillation counting); settings: for vinblastine skin absorption (amount in receptor fluid): 16 hours
[2] = system: human skin samples; experiment: Skin distribution of Rhodamine 123 by epifluorescence microscopy; type: in vitro ADME; settings: skin samples treated with Verapamil, data not shown
[3] = system: human skin samples; experiment: In vitro cutaneous absorption of LTC4 (receptor fluid, liquid scintillation counting); type: in vitro ADME; settings: 68.5 nM LTC4 10 μL/cm2, 6 hours
Description: Tritium labeled LTC4 was used. The concentration of the LTC4 solution used was 68.5 nM (0.01 mCi/mL).
At the end of the period of treatment with the inhibitor, the skin samples, both the control samples and those treated with the inhibitor, were treated with the LTC4 solution. […] The duration of the treatment with LTC4 was 6 hours.
The in vitro LTC4 skin absorption experiments were performed with fresh skin samples originating from three different donors. The experiments were performed in 6-well Transwell plates, with a 1 cm^2 area of treated skin and receptor fluid volumes of 1.5 mL. The treatment volume for the skin surface was 10 μL, corresponding to 0.69 […] and 222 000 dpm. Three different experiments were performed with skin samples originating from three different donors. In each experiment, each condition was performed in triplicate (N=9 in total).

[4] = system: human skin samples; experiment: Cutaneous distribution of LTC4 by autoradiography of skin sections; type: in vitro ADME
Description: The distribution of Vinblastine in the skin was analyzed by autoradiography. Skin samples were placed in a tissue holder and freeze-mounted in cryomount embedding medium. The frozen blocks were sectioned into slices 8-10 μm thick, perpendicular to the epidermal surface in a cryomicrotome (Thermo Electron). The sections were collected on glass slides and dried. Cryosections were placed on a Fuji imaging plate type Bas-III (20×40 cm) in a Fujix Bas cassette 2040 during 24 hours to 5 days. The exposed plate was scanned with a Bio-Imaging analyzer (Fujix BAS 2000). The scanned images were analyzed using TINA software.
The distribution of the LTC4 in the skin was analyzed by autoradiography. The experimental conditions are identical to those described previously for vinblastine.

- vinblastine skin absorption (amount in receptor fluid) ([1]; dermarolled skin (32 roller passages)): 0.6 nmol
- increase of vinblastine skin absorption by skin perforation by dermaroller ([1]; dermarolled versus intact skin): about 200 times
- vinblastine skin absorption, share of the applied dose ([1]; intact human skin, 2.5 mM [3H]-vinblastine 10 μL/cm2, 16 hours, receptor fluid): 0.001 % of the applied dose
- vinblastine skin absorption (amount in receptor fluid) ([1]; intact human skin): 0.003 nmol
- increase of vinblastine skin absorption by tape stripping ([1]; stripped versus intact skin): about 20 times
- vinblastine skin absorption (amount in receptor fluid) ([1]; tape stripped skin (30 stripes)): 0.07 nmol
SMILES: CC[C@]1(O)C[C@@H]2CN(CCc3c([nH]c4ccccc34)[C@@](C(=O)OC)(c3cc4c(cc3OC)N(C)[C@H]3[C@@](O)(C(=O)OC)[C@H](OC(C)=O)[C@]5(CC)C=CCN6CC[C@]43[C@@H]65)C2)C1 [vinblastine, Vinblastine]

SMILES: COc1ccc(CCN(C)CCCC(C#N)(c2ccc(OC)c(OC)c2)C(C)C)cc1OC (stereo not shown) [verapamil, Verapamil]
- effect of Verapamil on Rhodamine 123 fluorescence intensity in skin sections [2]: No difference in fluorescence intensity

- cutaneous absorption of LTC4, share of the applied dose [3]: about 1.7 % of the applied dose
SMILES: CCCCC/C=C\C\C=C/C=C/C=C/[C@@H](SC[C@H](NC(=O)CC[C@H](N)C(=O)O)C(=O)NCC(=O)O)[C@@H](O)CCCC(=O)O [LTC4, leukotriene-C4]
- cutaneous distribution of LTC4 (autoradiography signal) ([4]; skin sections without treatment with the inhibitor): a radioactive signal related to LTC4 is observed in the uppermost part of the skin section corresponding to the epidermis

SMILES: CN(C)C(=O)CCSC(SCCC(=O)O)c1cccc(/C=C/c2ccc3ccc(Cl)cc3n2)c1 (stereo not shown) [MK571]
- effect of MK571 on cutaneous distribution of LTC4 (autoradiography signal) ([4]; skin treated with the inhibitor MK571): appreciable increase in the intensity of the signal related to LTC4
